Data as given in US8828993B2, “Psychotropic agents having glutamate NMDA activity” (Ramot At Tel-Aviv University Ltd., priority 2006, dated 2014).
Counter-ions that a name gives are not always drawn.

Experiments:
mice = test: Forced swim test (FST); type: in vivo
Text: This is one of the most widely used tools for screening antidepressant activity pre-clinically in acute treatment. The test was first described by Porsolt et al., (Behavioral despair in mice: a primary screening test for antidepressants. Arch. Int. Pharmacodyn. Ther. 229, pp. 327-336, 1977). The FST test is based on the observation that rats and mice develop an immobile posture when placed in an inescapable cylinder of water. This behavior is considered a behavioral despair as opposed to active form of coping with stressful conditions. The FST test is considered a good screening tool with good reliability and predictive validity.
Three parameters were defined in the evaluation of FST:
1. Immobility—defined in the traditional Porsolt test as when no additional activity is observed other than that required to keep the animal's head above water;
2. Swimming behavior—being the movement (usually horizontal) throughout the chamber that also includes crossing into another quadrant;
3. Climbing behavior—being defined as the upward-directed movements (vertical) of the forepaws along the side of the swim chamber.
The test in mice was conducted acutely (60-90 minutes post oral drug administration) and animals were dropped to the cylinder for 6 minutes and scoring was performed in the last 4 minutes after 2 minutes of adaptation.
Round glass cylinders, 18 cm in diameter and 20 cm deep were used. Water temperature was 24-28° C. Four parameters were taken: immobility, velocity, distance and strong mobility. The immobility in the animals was defined by activity lower than 10% movement of the center of gravity of the animal. Swimming was defined by the distance and the velocity of the animal, and climbing was related to strong mobility (movement of center of gravidance more than 30%).
Males Balb/c mice (Harlan Israel) were used. Animals were administered orally with Compound 1 (10 or 20 mg/kg) or with a vehicle.
Males ICR mice were used.

[1] = tested on: amphetamine-induced hyperactivity in mice; test: Amphetamine-induced hyperactivity and stereotypic behavior; type: in vivo; conditions: ICR male mice
Text: The amphetamine-induced hyperactivity and motility is one of the most popular animal models for schizophrenia (Pouzet B, et al., Effects of the 5-HT(7) receptor antagonist SB-258741 in animal models for schizophrenia. Pharmacol Biochem Behav April; 71(4):655-665, 2002 and Geyer, et al., Animal behavior models of the mechanisms underlying antipsychotic atypicalicity, Progress in Neuro-Psychopharmacol & Biological Psychiatry, 27, 1071-79, 2003). Amphetamines are known to augment dopaminergic and noradrenergic neurotransmission by inducing catecholamine release and preventing catecholamine reuptake
The experiment was conducted with ICR male mice placed in individual barrels. […] The locomotor activity, number of rearings and head movements was recorded every 15 minutes for 2 h.
As stated above, the amphetamine-induced hyperactivity and motility is one of the most popular animal models for schizophrenia. The experiment was conducted with ICR male mice placed in individual barrels. Compound 1 (20 mg/kg) was administered p.o to the mice 1 hr prior to i.p. administration of amphetamine (2. mg/kg). The hyper-active behavior expressed by the number of climbings and rearings and the stereotypic behavior expressed by the number of head movements was recorded every 15 minutes over a period of 1 h.
The effect of Compound 3 (12.5, 25 and 50 mg/kg, i.p.) on amphetamine-induced hyperactivity in Balb/c mice was also examined. Animals (6 per group) were injected with Compound 3 (12.5, 25 and 50 mg/kg) and 30 minutes later received amphetamine (2 mg/kg ip). After 30 minutes, animals were exposed to an open field test for a period of 20 minutes.

[2] = male Balb/c mice, 10 mg/kg oral, vs vehicle

COC(=O)C(N)CN1CCN(C2=Nc3ccccc3Nc3sc(C)cc32)CC1 (stereo not shown) [Compound 1, 2-amino-3-[4-(2-methyl-10H-thieno[2,3-b][1,5]benzodiazepin-4-yl)-piperazin-1-yl]-propionic acid, methyl ester hydrochloride salt]
distance moved (swimming behavior) (mice; [2]): significantly increased
strong mobility (climbing behavior) (mice; [2]): significantly increased
immobility (mice; male Balb/c mice, 20 mg/kg oral, vs vehicle): decreased
distance moved (mice; male ICR mice, 20 mg/kg oral): did not modify
immobility (mice; male ICR mice, 20 mg/kg oral): significantly decreased
strong mobility (climbing) (mice; male ICR mice, 20 mg/kg oral): significantly decreased
velocity (mice; male ICR mice, 20 mg/kg oral): did not modify
rearing behavior, compound alone compared to control animals ([1]; 20 mg/kg p.o.): increased
increase in head movements induced by amphetamine (stereotypic behavior) ([1]; 20 mg/kg p.o. 1 hr prior to amphetamine 2 mg/kg i.p.): did not attenuate
hyperactivity induced by amphetamine (number of climbings and rearings) ([1]; 20 mg/kg p.o. 1 hr prior to amphetamine 2 mg/kg i.p., over 1 h): effective in antagonizing
